Test results as given in the NIST ThermoML archive (doi:10.1016/j.jct.2012.07.022).
Numbers after ± are expanded uncertainties.

Assay: wn = mass fraction of the nth substance listed
Conditions: 101 kPa, Liquid; for electrical conductivity: Alternating current cell with electrodes; for viscosity: Capillary tube (Ostwald / Ubbelohde) method; for mass density: Vibrating tube method

Nc1[nH]cnc2ncnc1-2 [6-amino-1H-purine] + CC(=O)[O-].CCn1cc[n+](C)c1
Conditions | electrical conductivity [S/m] | mass density [kg/m3] | viscosity [mPa·s]
298.15 K, w2 = 0 | 0.296 ± 0.006 | 1097.6 ± 0.3 | 128.5 ± 5.5
298.15 K, w2 = 0.0482 | 0.209 ± 0.004 | 1111.1 ± 0.3 | 197.7 ± 9
298.15 K, w2 = 0.1008 | 0.143 ± 0.003 | 1124.3 ± 0.3 | 318 ± 16
298.15 K, w2 = 0.1514 | 0.0996 ± 0.002 | 1135 ± 0.3 | 498.1 ± 27
298.15 K, w2 = 0.2055 | 0.0672 ± 0.0014 | 1146.4 ± 0.3 | 823.2 ± 49
298.15 K, w2 = 0.2481 | 0.0471 ± 0.001 | 1154.5 ± 0.4 | 1235.7 ± 79
303.15 K, w2 = 0 | 0.382 ± 0.008 | 1094.5 ± 0.3 | 95.23 ± 4
303.15 K, w2 = 0.0482 | 0.278 ± 0.006 | 1107.9 ± 0.3 | 141 ± 6
303.15 K, w2 = 0.1008 | 0.197 ± 0.004 | 1121.1 ± 0.3 | 218 ± 10
303.15 K, w2 = 0.1514 | 0.142 ± 0.003 | 1131.7 ± 0.3 | 328.1 ± 16
303.15 K, w2 = 0.2055 | 0.0995 ± 0.002 | 1143 ± 0.3 | 517.9 ± 28
303.15 K, w2 = 0.2481 | 0.0718 ± 0.0015 | 1151.2 ± 0.3 | 748.9 ± 44
308.15 K, w2 = 0 | 0.48 ± 0.01 | 1091.4 ± 0.3 | 72.42 ± 2.9
308.15 K, w2 = 0.0482 | 0.362 ± 0.007 | 1104.9 ± 0.3 | 103.7 ± 4.4
308.15 K, w2 = 0.1008 | 0.264 ± 0.005 | 1118 ± 0.3 | 154.8 ± 6.8
308.15 K, w2 = 0.1514 | 0.196 ± 0.004 | 1128.6 ± 0.3 | 224.7 ± 10
308.15 K, w2 = 0.2055 | 0.142 ± 0.003 | 1139.8 ± 0.3 | 341.2 ± 17
308.15 K, w2 = 0.2481 | 0.105 ± 0.002 | 1147.9 ± 0.3 | 477.5 ± 26
313.15 K, w2 = 0 | 0.594 ± 0.012 | 1088.4 ± 0.3 | 56.38 ± 2.3
313.15 K, w2 = 0.0482 | 0.459 ± 0.009 | 1101.9 ± 0.3 | 78.37 ± 3.2
313.15 K, w2 = 0.1008 | 0.346 ± 0.007 | 1114.9 ± 0.3 | 113.4 ± 4.8
313.15 K, w2 = 0.1514 | 0.262 ± 0.005 | 1125.5 ± 0.3 | 159.6 ± 7.1
313.15 K, w2 = 0.2055 | 0.194 ± 0.004 | 1136.6 ± 0.3 | 233.9 ± 11
313.15 K, w2 = 0.2481 | 0.148 ± 0.003 | 1144.7 ± 0.3 | 318.1 ± 16
318.15 K, w2 = 0 | 0.827 ± 0.017 | 1085.3 ± 0.3 | 44.79 ± 1.8
318.15 K, w2 = 0.0482 | 0.571 ± 0.011 | 1098.8 ± 0.3 | 60.64 ± 2.4
318.15 K, w2 = 0.1008 | 0.439 ± 0.009 | 1111.9 ± 0.3 | 85.36 ± 3.5
318.15 K, w2 = 0.1514 | 0.34 ± 0.01 | 1122.4 ± 0.3 | 116.8 ± 5
318.15 K, w2 = 0.2055 | 0.259 ± 0.005 | 1133.5 ± 0.3 | 166 ± 7
318.15 K, w2 = 0.2481 | 0.202 ± 0.004 | 1141.6 ± 0.3 | 220.1 ± 10
323.15 K, w2 = 0 | 0.986 ± 0.02 | 1082.3 ± 0.3 | 36.23 ± 1.5
323.15 K, w2 = 0.0482 | 0.695 ± 0.014 | 1095.8 ± 0.3 | 47.91 ± 1.9
323.15 K, w2 = 0.1008 | 0.546 ± 0.011 | 1108.9 ± 0.3 | 65.78 ± 2.7
323.15 K, w2 = 0.1514 | 0.431 ± 0.009 | 1119.4 ± 0.3 | 87.9 ± 3.6
323.15 K, w2 = 0.2055 | 0.336 ± 0.007 | 1130.4 ± 0.3 | 121.4 ± 5.2
323.15 K, w2 = 0.2481 | 0.267 ± 0.005 | 1138.5 ± 0.3 | 157.4 ± 7
328.15 K, w2 = 0 | – | 1079.3 ± 0.3 | 29.78 ± 1.2
328.15 K, w2 = 0.0482 | – | 1092.9 ± 0.3 | 38.55 ± 1.6
328.15 K, w2 = 0.1008 | – | 1105.9 ± 0.3 | 51.75 ± 2.1
328.15 K, w2 = 0.1514 | – | 1116.4 ± 0.3 | 67.64 ± 2.8
328.15 K, w2 = 0.2055 | – | 1127.5 ± 0.3 | 91.14 ± 3.8
328.15 K, w2 = 0.2481 | – | 1135.4 ± 0.3 | 115.9 ± 4.9
333.15 K, w2 = 0 | – | 1076.2 ± 0.3 | 24.82 ± 1
333.15 K, w2 = 0.0482 | – | 1089.9 ± 0.3 | 31.51 ± 1.3
333.15 K, w2 = 0.1008 | – | 1102.9 ± 0.3 | 41.48 ± 1.7
333.15 K, w2 = 0.1514 | – | 1113.4 ± 0.3 | 53.16 ± 2.1
333.15 K, w2 = 0.2055 | – | 1124.5 ± 0.3 | 70.05 ± 2.9
333.15 K, w2 = 0.2481 | – | 1132.5 ± 0.3 | 87.5 ± 3.6
338.15 K, w2 = 0 | – | 1073.3 ± 0.3 | 20.95 ± 0.85
338.15 K, w2 = 0.0482 | – | 1086.9 ± 0.3 | 26.14 ± 1.1
338.15 K, w2 = 0.1008 | – | 1099.9 ± 0.3 | 33.78 ± 1.4
338.15 K, w2 = 0.1514 | – | 1110.4 ± 0.3 | 42.55 ± 1.7
338.15 K, w2 = 0.2055 | – | 1121.5 ± 0.3 | 54.95 ± 2.2
338.15 K, w2 = 0.2481 | – | 1129.5 ± 0.3 | 67.57 ± 2.8
343.15 K, w2 = 0 | – | 1070.3 ± 0.3 | 17.88 ± 0.72
343.15 K, w2 = 0.0482 | – | 1083.9 ± 0.3 | 21.96 ± 0.89
343.15 K, w2 = 0.1008 | – | 1096.9 ± 0.3 | 27.91 ± 1.1
343.15 K, w2 = 0.1514 | – | 1107.4 ± 0.3 | 34.61 ± 1.4
343.15 K, w2 = 0.2055 | – | 1118.5 ± 0.3 | 43.91 ± 1.8
343.15 K, w2 = 0.2481 | – | 1126.4 ± 0.3 | 53.21 ± 2.1
